Data on 8 compounds can be found in patent publication US8916557B2, “Substituted 4-Aryl-N-phenyl-1,3,5-triazin-2-amines” (Bayer Intellectual Property GmbH, priority 2011, dated 2014).

The target in one experiment is T1, CDK2/CycE (Homo sapiens, UniProt P24941).
T1 construct: GST; purchased ProQinase GmbH (Freiburg, Germany); host or cells: insect cells (Sf9)
Nature of the experiment: CDK2/CycE kinase assay (TR-FRET). It counts as biochemical. To be noted: Method 2, 10 μM ATP. In short, it runs like this:
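TR-FRET read-out: emission ratio 665/620 nm via anti-RB(pSer807/pSer811) antibody, Eu-anti-mouse IgG and streptavidin-XL665. Kinase reaction: insect-cell GST-CDK2/CycE, compound pre-bound 15 min, 10 μM ATP final, 0.75 μM biotin-peptide, 25 min, 22 °C, pH 8.0.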
In general terms: In TR-FRET formats the signal depends on donor and acceptor labels being close together.

The test system of experiment [1] is HeLa human cervical tumour cells. Nature of the experiment: Proliferation assay (crystal violet), HeLa. It counts as cell-based. The settings on record: read-out: Inhibition of HeLa cell proliferation.
Experiment [2] has as its system HeLa-MaTu-ADR, multidrug-resistant human cervical carcinoma cells. Nature of the experiment: Proliferation assay (crystal violet), HeLa-MaTu-ADR. To be noted: read-out: Inhibition of HeLa/MaTu/ADR cell proliferation. It counts as cell-based. Here is the method: (§1) Cultivated tumour cells (NCI-H460, human non-small cell lung carcinoma cells, ATCC HTB-177; DU 145, hormone-independent human prostate carcinoma cells, ATCC HTB-81; HeLa-MaTu, human cervical carcinoma cells, EPO-GmbH, Berlin; HeLa-MaTu-ADR, multidrug-resistant human cervical carcinoma cells, EPO-GmbH, Berlin; HeLa human cervical tumour cells, ATCC CCL-2; Caco-2 human colorectal carcinoma, ATCC HTB-37; B16F10 mouse melanoma cells, ATCC CRL-6475) were plated at a density of 5000 cells/well (DU145, HeLa-MaTu-ADR), 3000 cells/well (NCI-H460, HeLa-MaTu, HeLa), 1500 cells/well (Caco-2), or 1000 cells/well (B16F10) in a 96-well multititer plate in 200 μL of their respective growth medium supplemented 10% fetal calf serum. After 24 hours, the cells of one plate (zero-point plate) were stained with crystal violet (see below), while the medium of the other plates was replaced by fresh culture medium (200 μl), to which the test substances were added in various concentrations (0 μM, as well as in the range of 0.001-10 μM; the final concentration of the solvent dimethyl sulfoxide was 0.5%). The cells were incubated for 4 days in the presence of test substances. Cell proliferation was determined by staining the cells with crystal violet: the cells were fixed by adding 20 μl/measuring point of an 11% glutaric aldehyde solution for 15 minutes at room temperature. After three washing cycles of the fixed cells with water, the plates were dried at room temperature. The cells were stained by adding 100 μl/measuring point of a 0.1% crystal violet solution (pH 3.0). After three washing cycles of the stained cells with water, the plates were dried at room temperature. The dye was dissolved by adding 100 μl/measuring point of a 10% acetic acid solution. The extinction was determined by photometry at a wavelength of 595 nm. The change of cell number, in percent, was calculated by normalization of the measured values to the extinction values of the zero-point plate (=0%) and the extinction of the untreated (0 μm) cells (=100%). The IC50 values were determined by means of a 4 parameter fit.

The subject of experiment [3] is NCI-H460, human non-small cell lung carcinoma cells. Nature of the experiment: Proliferation assay (crystal violet), NCI-H460. It counts as cell-based. The settings on record: read-out: Inhibition of H460 cell proliferation (activity range). As to the method: as §1
The subject of experiment [4] is DU 145, hormone-independent human prostate carcinoma cells. Nature of the experiment: Proliferation assay (crystal violet), DU 145. It counts as cell-based. The settings on record: DU145 cells, read-out: Inhibition of DU145 cell proliferation.
For experiment [5], the system named is B16F10 mouse melanoma cells. Nature of the experiment: Proliferation assay (crystal violet), B16F10. It counts as cell-based. The settings on record: B16-F10, read-out: Inhibition of B16F10 cell proliferation. As to the method:
as §1

As for `CS(=O)(=O)Cc1cccc(Nc2ncnc(-c3ccc(Cl)cc3OC3CCCC3)n2)c1` [Example 29, 4-[4-Chloro-2-(cyclopentyloxy)phenyl]-N-{3-[(methylsulfonyl)methyl]phenyl}-1,3,5-triazin-2-amine], the IC50 at CDK2/CycE was determined as 12000 nM; in experiment [1], 530 nM; in experiment [2], 400 nM; in experiment [3], 730 nM; in experiment [4] it was 530 nM; in experiment [5] it was 640 nM.

`COc1cc(F)ccc1-c1ncnc(Nc2ccc(F)c(CS(C)(=O)=O)c2)n1` [Example 33, 4-(4-Fluoro-2-methoxyphenyl)-N-{4-fluoro-3-[(methylsulfonyl)methyl]phenyl}-1,3,5-triazin-2-amine]: the IC50 at CDK2/CycE came out at 360 nM; in experiment [1], 340 nM; in experiment [2] it was 180 nM; in experiment [3] it was 340 nM; in experiment [4], 330 nM; in experiment [5], 460 nM.

Consider `CS(=O)(=O)Cc1cccc(Nc2ncnc(-c3cccc4c3OCCO4)n2)c1` [Example 18, 4-(2,3-Dihydro-1,4-benzodioxin-5-yl)-N-{3-[(methylsulfonyl)methyl]phenyl}-1,3,5-triazin-2-amine], for which the IC50 on CDK2/CycE stood at 840 nM; in experiment [1], 530 nM; in experiment [2], 400 nM; in experiment [3] it was 730 nM; in experiment [4], 530 nM; in experiment [5], 640 nM.

In the case of `Cc1cccc(COc2cc(F)ccc2-c2ncnc(Nc3cccc(CS(C)(=O)=O)c3)n2)c1` [Example 83, 4-{4-Fluoro-2-[(3-methylbenzyl)oxy]phenyl}-N-{3-[(methylsulfonyl)-methyl]phenyl}-1,3,5-triazin-2-amine], the IC50 is 400 nM on CDK2/CycE; 510 nM in experiment [1]; 350 nM in experiment [2]; 380 nM in experiment [3]; 380 nM in experiment [4]; 440 nM in experiment [5].

Take `COc1cc(F)ccc1-c1ncnc(Nc2cc(F)cc(CS(C)(=O)=O)c2)n1` [Example 10, 4-(4-Fluoro-2-methoxyphenyl)-N-{3-fluoro-5-[(methylsulfonyl)methyl]phenyl}-1,3,5-triazin-2-amine]: the IC50 against CDK2/CycE stood at 320 nM; in experiment [1] it was 110 nM; in experiment [2], 80 nM; in experiment [3], 220 nM; in experiment [4], 220 nM; in experiment [5] it was 270 nM.

Consider `CS(=O)(=O)Cc1cccc(Nc2ncnc(-c3cccc4c3OCCC4)n2)c1` [Example 12, 4-(3,4-Dihydro-2H-chromen-8-yl)-N-{3-[(methylsulfonyl)methyl]phenyl}-1,3,5-triazin-2-amine], for which the IC50 against CDK2/CycE worked out at 510 nM; in experiment [1], 340 nM; in experiment [2], 230 nM; in experiment [3], 410 nM; in experiment [4], 320 nM; in experiment [5], 510 nM.

Consider `CS(=O)(=O)Cc1cccc(Nc2ncnc(-c3ccc(F)cc3OCCF)n2)c1` [Example 61, 4-[4-Fluoro-2-(2-fluoroethoxy)phenyl]-N-{3-[(methylsulfonyl)methyl]phenyl}-1,3,5-triazin-2-amine], for which the IC50 at CDK2/CycE stood at 640 nM; in experiment [1] it was 590 nM; in experiment [2], 380 nM; in experiment [3], 610 nM; in experiment [4] it was 480 nM; in experiment [5], 740 nM.

On to `CC#CCOc1cc(F)ccc1-c1ncnc(Nc2cccc(CS(C)(=O)=O)c2)n1` [Example 62, 4-[2-(But-2-yn-1-yloxy)-4-fluorophenyl]-N-{3-[(methylsulfonyl)methyl]phenyl}-1,3,5-triazin-2-amine], for which the IC50 on CDK2/CycE was determined as 540 nM; in experiment [1], 110 nM; in experiment [2], 180 nM; in experiment [3], 160 nM; in experiment [4], 170 nM; in experiment [5], 240 nM.
